Test results reported in PubChem BioAssay AID2060908 (Molecular Pharmacology Branch, DTP, NCI, 2025).

Test system: 186277-243-T-J2-PDC complex spheroids, viability
Assay: Anticancer human tumor 186277-243-T-J2-PDC patient-derived colon adenocarcinoma cell line growth inhibition [RAS]
Settings: for IC50: curve of first compound; for viability, T/C: stronger effect = lower value
Summary of the method: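 Agents were tested in combination matrices in half-log decrements from a top concentration at or near clinical Cmax (10 microM if undetermined). Targets were multi-cell spheroids of tumour lines plus HUVEC and MSC stromal cells.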
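Further: spheroids exposed to compounds for 7 days before viability read.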

`C=CC(=O)Nc1cc(Nc2nccc(-c3cn(C)c4ccccc34)n2)c(OC)cc1N(C)CCN(C)C` + C=CC(=O)N1CCN(c2nc(OCC3CCCN3C)nc3c(F)c(-c4nc(N)cc(C)c4C(F)(F)F)c(Cl)cc23)C(C)C1 gave an IC50 (second compound 0.00316 µM) greater than 1000 nM, an IC50 (second compound 0.01 µM) greater than 1000 nM and an IC50 (second compound 0.0316 µM) greater than 1000 nM. For the same compound, the IC50 (second compound 0.1 µM) was greater than 1000 nM, the IC50 (second compound 0.316 µM) was greater than 1000 nM and the IC50 (second compound 1 µM) was greater than 1000 nM. The viability, T/C (second compound 0.00316 µM, first compound 0.00316 µM) was 82.3%, the viability, T/C (second compound 0.00316 µM, first compound 0.01 µM) was 89.4% and the viability, T/C (second compound 0.00316 µM, first compound 0.0316 µM) was 89.8%. It also gave a viability, T/C (second compound 0.00316 µM, first compound 0.1 µM) of 80.5%, a viability, T/C (second compound 0.00316 µM, first compound 0.316 µM) of 97.4% and a viability, T/C (second compound 0.00316 µM, first compound 1 µM) of 110%. For the same compound, the viability, T/C (second compound 0.01 µM, first compound 0.00316 µM) was 96.1%, the viability, T/C (second compound 0.01 µM, first compound 0.01 µM) was 88.2% and the viability, T/C (second compound 0.01 µM, first compound 0.0316 µM) was 89.8%. It also gave a viability, T/C (second compound 0.01 µM, first compound 0.1 µM) of 94%, a viability, T/C (second compound 0.01 µM, first compound 0.316 µM) of 107% and a viability, T/C (second compound 0.01 µM, first compound 1 µM) of 77.3%. For the same compound, the viability, T/C (second compound 0.0316 µM, first compound 0.00316 µM) was 84.8%, the viability, T/C (second compound 0.0316 µM, first compound 0.01 µM) was 91.6% and the viability, T/C (second compound 0.0316 µM, first compound 0.0316 µM) was 93.2%. It also gave a viability, T/C (second compound 0.0316 µM, first compound 0.1 µM) of 96.1%, a viability, T/C (second compound 0.0316 µM, first compound 0.316 µM) of 99.1% and a viability, T/C (second compound 0.0316 µM, first compound 1 µM) of 97%. The viability, T/C (second compound 0.1 µM, first compound 0.00316 µM) was 89.6%, the viability, T/C (second compound 0.1 µM, first compound 0.01 µM) was 85% and the viability, T/C (second compound 0.1 µM, first compound 0.0316 µM) was 79.5%. It also gave a viability, T/C (second compound 0.1 µM, first compound 0.1 µM) of 109%, a viability, T/C (second compound 0.1 µM, first compound 0.316 µM) of 126% and a viability, T/C (second compound 0.1 µM, first compound 1 µM) of 86.8%. For the same compound, the viability, T/C (second compound 0.316 µM, first compound 0.00316 µM) was 89.4%, the viability, T/C (second compound 0.316 µM, first compound 0.01 µM) was 94.3% and the viability, T/C (second compound 0.316 µM, first compound 0.0316 µM) was 103%. It also gave a viability, T/C (second compound 0.316 µM, first compound 0.1 µM) of 86.5%, a viability, T/C (second compound 0.316 µM, first compound 0.316 µM) of 130% and a viability, T/C (second compound 0.316 µM, first compound 1 µM) of 98.9%. It also gave a viability, T/C (second compound 1 µM, first compound 0.00316 µM) of 109%, a viability, T/C (second compound 1 µM, first compound 0.01 µM) of 78.8% and a viability, T/C (second compound 1 µM, first compound 0.0316 µM) of 91.9%. For the same compound, the viability, T/C (second compound 1 µM, first compound 0.1 µM) was 104%, the viability, T/C (second compound 1 µM, first compound 0.316 µM) was 82.1% and the viability, T/C (second compound 1 µM, first compound 1 µM) was 81.2%.
